Data: patent US10221163B2 (priority 2015, dated 2019)
Where two headings read alike, the source gives them in different places.

Tests used:
IMP-1 = IMP-1 (Serratia marcescens, UniProt P52699); test: biochemical; format: biochemical; conditions: fluorescence assay, CCF2-FA substrate, 2 pM enzyme, 2 hours at 25° C.; read-out: IMP-1 IC50
Method in brief: (§1)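 IC50 values derive from 4-parameter fits of percent inhibition against inhibitor concentration on semi-log axes. Activity was monitored by fluorescence with the CCF2-FA substrate after a 2-hour, 25° C incubation of compound, enzyme and substrate.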

NDM-1 = NDM-1 (Klebsiella pneumoniae, UniProt C7C422); test: biochemical; format: biochemical; conditions: fluorescence assay, CCF2-FA substrate, 1 pM enzyme, 2 hours at 25° C.; read-out: NDM-1 IC50
Method in brief: as §1

VIM-1 = VIM-1 (Pseudomonas aeruginosa (strain ATCC 15692 / DSM 22644 / CIP 104116 / JCM 14847 / LMG 12228 / 1C / PRS 101 / PAO1), UniProt A0A0F7KYQ8); test: biochemical; conditions: CCF2-FA substrate, 30 pM enzyme, 2 hours at 25° C.
Method in brief: as §1

[1] = system: Escherichia coli expressing NDM-1 (CLB30005, CLB30016); format: cell-based; conditions: with imipenem 1 μg/ml; 95% inhibition of bacterial growth
Method in brief: (§2)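 Growth by absorbance after 22–24 h at 35°C defined the read-out, with imipenem fixed at 1 μg/ml alongside compound. Inocula came from overnight blood-agar colonies at 35°C, resuspended in saline and diluted 1:100 in 1.1×CAMHB.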

[2] = system: Klebsiella pneumoniae expressing VIM-1 (IHMA599644); format: cell-based; conditions: with imipenem 1 μg/ml; 95% inhibition of bacterial growth
Method in brief: as §2

[3] = system: Serratia marcescens expressing IMP-1 (CL5741); format: cell-based; conditions: with imipenem 1 μg/ml; 95% inhibition of bacterial growth
Method in brief: as §2

[4] = system: Pseudomonas aeruginosa efflux+ (MB9798), IMP-1; format: cell-based; conditions: concentration restoring susceptibility to imipenem at 2 μg/mL in the presence of a class A, C, D serine β-lactamase inhibitor closely related to relebactam
Method in brief: (§3)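 Steps: add fixed imipenem and/or ceftazidime (usually CLSI breakpoint) and fixed AmpC-directed class A/C inhibitor to microbroth MIC wells; titrate MBL inhibitor; record concentration regaining susceptibility for each PAO1-derived strain; divide efflux+ by efflux− value.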

[5] = system: Pseudomonas aeruginosa efflux− (MB9799), IMP-1; format: cell-based; conditions: concentration restoring susceptibility to imipenem at 2 μg/mL in the presence of a class A, C, D serine β-lactamase inhibitor closely related to relebactam
Method in brief: as §3

[6] = system: Pseudomonas aeruginosa MB9798 vs MB9799; conditions: ratio MITC95 PA_9798/MITC95 PA_9799
Method in brief: as §3

[7] = fluorescence assay, read-out: VIM-1 IC50

NDM-1, sequence (C7C422 whole entry, looked up, species assumed): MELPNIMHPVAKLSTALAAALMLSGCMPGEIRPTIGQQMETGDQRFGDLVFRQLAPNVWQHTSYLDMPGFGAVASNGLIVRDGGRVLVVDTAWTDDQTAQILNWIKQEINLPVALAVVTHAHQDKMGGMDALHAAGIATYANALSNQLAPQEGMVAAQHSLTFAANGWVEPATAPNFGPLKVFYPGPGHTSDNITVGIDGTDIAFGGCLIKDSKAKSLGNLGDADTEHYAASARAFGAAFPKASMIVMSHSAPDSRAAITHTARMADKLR
IMP-1, sequence (P52699 whole entry, looked up, species assumed): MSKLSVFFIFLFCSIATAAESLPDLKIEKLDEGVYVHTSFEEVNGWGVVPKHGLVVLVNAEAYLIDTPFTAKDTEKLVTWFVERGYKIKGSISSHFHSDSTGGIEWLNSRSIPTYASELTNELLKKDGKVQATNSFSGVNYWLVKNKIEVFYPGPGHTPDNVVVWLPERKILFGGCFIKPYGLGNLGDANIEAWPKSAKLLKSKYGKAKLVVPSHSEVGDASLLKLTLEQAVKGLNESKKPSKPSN

CNC(=O)CNS(=O)(=O)c1ccc(-c2cccc3sc(N)nc23)c(-c2nnn[nH]2)c1S(N)(=O)=O [Example 23, N^2-{[4-(2-amino-1,3-benzothiazol-4-yl)-2-sulfamoyl-3-(1H-tetrazol-5-yl)phenyl]sulfonyl}-N-methylglycinamide]
IC50 (IMP-1): 0.294 nM
IC50 (NDM-1): 0.0511 nM
IC50 (VIM-1; VIM-1 IC50, fluorescence assay): 0.224 nM
Escherichia coli expressing NDM-1 (CLB30016) MITC95 [1]: 25 µM
Klebsiella pneumoniae expressing VIM-1 (IHMA599644) MITC95 [2]: 12.5 µM
Serratia marcescens expressing IMP-1 (CL5741) MITC95 [3]: 6.25 µM
P. aeruginosa expressing IMP-1, efflux + (MB9798) MITC95 [4]: 3.125 µM
P. aeruginosa expressing IMP-1, efflux − (MB9799) MITC95 [5]: 3.125 µM
Efflux ratio [6]: 1.00

COCCNS(=O)(=O)c1ccc(-c2cccc3sc(N)nc23)c(-c2nnn[nH]2)c1S(N)(=O)=O [Example 24, 4-(2-amino-1,3-benzothiazol-4-yl)-N^1-(2-methoxyethyl)-3-(1H-tetrazol-5-yl)benzene-1,2-disulfonamide]
IC50 (IMP-1): 0.235 nM
IC50 (NDM-1): 0.0732 nM
IC50 (VIM-1; [7]): 0.205 nM
Escherichia coli expressing NDM-1 (CLB30016) MITC95 [1]: 25 µM
Klebsiella pneumoniae expressing VIM-1 (IHMA599644) MITC95 [2]: 12.5 µM
Serratia marcescens expressing IMP-1 (CL5741) MITC95 [3]: 3.125 µM
P. aeruginosa expressing IMP-1, efflux + (MB9798) MITC95 [4]: 12.5 µM
P. aeruginosa expressing IMP-1, efflux − (MB9799) MITC95 [5]: 3.125 µM
Efflux ratio [6]: 4.00

Nc1nc2c(-c3ccc(S(=O)(=O)N4CCC(CO)CC4)c(S(N)(=O)=O)c3-c3nnn[nH]3)cccc2s1 [Example 25, 3-(2-amino-1,3-benzothiazol-4-yl)-6-{[4-(hydroxymethyl)piperidin-1-yl]sulfonyl}-2-(1H-tetrazol-5-yl)benzenesulfonamide]
IC50 (IMP-1): 2.24 nM
IC50 (NDM-1): 3.02 nM
IC50 (VIM-1; [7]): 4.52 nM
Escherichia coli expressing NDM-1 (CLB30016) MITC95 [1]: 25 µM
Klebsiella pneumoniae expressing VIM-1 (IHMA599644) MITC95 [2]: 25 µM
Serratia marcescens expressing IMP-1 (CL5741) MITC95 [3]: 6.25 µM
P. aeruginosa expressing IMP-1, efflux + (MB9798) MITC95 [4]: 50 µM
P. aeruginosa expressing IMP-1, efflux − (MB9799) MITC95 [5]: 3.125 µM
Efflux ratio [6]: 16.00

CN(C)C1CCN(S(=O)(=O)c2ccc(-c3cccc4sc(N)nc34)c(-c3nnn[nH]3)c2S(N)(=O)=O)CC1 [Example 26, 3-(2-amino-1,3-benzothiazol-4-yl)-6-{[4-(dimethylamino)piperidin-1-yl]sulfonyl}-2-(1H-tetrazol-5-yl)benzenesulfonamide]
IC50 (IMP-1): 1.15 nM
IC50 (NDM-1): 0.974 nM
IC50 (VIM-1; [7]): 1.66 nM
Escherichia coli expressing NDM-1 (CLB30016) MITC95 [1]: 12.5 µM
Klebsiella pneumoniae expressing VIM-1 (IHMA599644) MITC95 [2]: 12.5 µM
Serratia marcescens expressing IMP-1 (CL5741) MITC95 [3]: 3.125 µM
P. aeruginosa expressing IMP-1, efflux + (MB9798) MITC95 [4]: 6.25 µM
P. aeruginosa expressing IMP-1, efflux − (MB9799) MITC95 [5]: 3.125 µM
Efflux ratio [6]: 2.00

CN1CCN(S(=O)(=O)c2ccc(-c3cccc4sc(N)nc34)c(-c3nnn[nH]3)c2S(N)(=O)=O)CC1 [Example 27, 3-(2-amino-1,3-benzothiazol-4-yl)-6-[(4-methylpiperazin-1-yl)sulfonyl]-2-(1H-tetrazol-5-yl)benzenesulfonamide]
IC50 (IMP-1): 1.59 nM
IC50 (NDM-1): 0.825 nM
IC50 (VIM-1; [7]): 1.92 nM
Escherichia coli expressing NDM-1 (CLB30016) MITC95 [1]: 12.5 µM
Klebsiella pneumoniae expressing VIM-1 (IHMA599644) MITC95 [2]: 25 µM
Serratia marcescens expressing IMP-1 (CL5741) MITC95 [3]: 6.25 µM
P. aeruginosa expressing IMP-1, efflux + (MB9798) MITC95 [4]: 12.5 µM
P. aeruginosa expressing IMP-1, efflux − (MB9799) MITC95 [5]: 6.25 µM
Efflux ratio [6]: 2.00

Nc1nc2c(-c3ccc(S(=O)(=O)N4CCNC(=O)C4)c(S(N)(=O)=O)c3-c3nnn[nH]3)cccc2s1 [Example 28, 3-(2-amino-1,3-benzothiazol-4-yl)-6-[(3-oxopiperazin-1-yl)sulfonyl]-2-(1H-tetrazol-5-yl)benzenesulfonamide]
IC50 (IMP-1): 0.646 nM
IC50 (NDM-1): 0.646 nM
IC50 (VIM-1; [7]): 0.726 nM
Escherichia coli expressing NDM-1 (CLB30016) MITC95 [1]: 25 µM
Klebsiella pneumoniae expressing VIM-1 (IHMA599644) MITC95 [2]: 12.5 µM
Serratia marcescens expressing IMP-1 (CL5741) MITC95 [3]: 6.25 µM
P. aeruginosa expressing IMP-1, efflux + (MB9798) MITC95 [4]: 12.5 µM
P. aeruginosa expressing IMP-1, efflux − (MB9799) MITC95 [5]: 3.125 µM
Efflux ratio [6]: 4.00

Nc1nc2c(-c3ccc(S(=O)(=O)N4CCOCC4)c(S(N)(=O)=O)c3-c3nnn[nH]3)cccc2s1 [Example 29, 3-(2-amino-1,3-benzothiazol-4-yl)-6-(morpholin-4-ylsulfonyl)-2-(1H-tetrazol-5-yl)benzenesulfonamide]
IC50 (IMP-1): 2.08 nM
IC50 (NDM-1): 1.35 nM
IC50 (VIM-1; VIM-1 IC50, fluorescence assay): 3.06 nM
Escherichia coli expressing NDM-1 (CLB30016) MITC95 [1]: 25 µM
Klebsiella pneumoniae expressing VIM-1 (IHMA599644) MITC95 [2]: 25 µM
Serratia marcescens expressing IMP-1 (CL5741) MITC95 [3]: 6.25 µM
P. aeruginosa expressing IMP-1, efflux + (MB9798) MITC95 [4]: 50 µM
P. aeruginosa expressing IMP-1, efflux − (MB9799) MITC95 [5]: 3.125 µM
Efflux ratio [6]: 16.00

Nc1nc2c(-c3ccc(S(=O)(=O)NCCC4CNC4)c(S(N)(=O)=O)c3-c3nnn[nH]3)cccc2s1 [Example 30, 4-(2-amino-1,3-benzothiazol-4-yl)-N1-(2-azetidin-3-ylethyl)-3-(1H-tetrazol-5-yl)benzene-1,2-disulfonamide]
IC50 (IMP-1): 0.369 nM
IC50 (NDM-1): 0.0686 nM
IC50 (VIM-1; VIM-1 IC50, fluorescence assay): 0.308 nM
Escherichia coli expressing NDM-1 (CLB30016) MITC95 [1]: 6.25 µM
Klebsiella pneumoniae expressing VIM-1 (IHMA599644) MITC95 [2]: 6.25 µM
Serratia marcescens expressing IMP-1 (CL5741) MITC95 [3]: 3.125 µM
P. aeruginosa expressing IMP-1, efflux + (MB9798) MITC95 [4]: 1.563 µM
P. aeruginosa expressing IMP-1, efflux − (MB9799) MITC95 [5]: 1.563 µM
Efflux ratio [6]: 1.00

CNCCNS(=O)(=O)c1ccc(-c2cccc3sc(N)nc23)c(-c2nnn[nH]2)c1S(N)(=O)=O [Example 31, 4-(2-amino-1,3-benzothiazol-4-yl)-N^1-[2-(methylamino)ethyl]-3-(1H-tetrazol-5-yl)benzene-1,2-disulfonamide]
IC50 (IMP-1): 2.02 nM
IC50 (NDM-1): 2.59 nM
IC50 (VIM-1; [7]): 8.18 nM
Escherichia coli expressing NDM-1 (CLB30016) MITC95 [1]: 9.375 µM
Klebsiella pneumoniae expressing VIM-1 (IHMA599644) MITC95 [2]: 6.25 µM
Serratia marcescens expressing IMP-1 (CL5741) MITC95 [3]: 2.344 µM
P. aeruginosa expressing IMP-1, efflux + (MB9798) MITC95 [4]: 2.344 µM
P. aeruginosa expressing IMP-1, efflux − (MB9799) MITC95 [5]: 1.563 µM
Efflux ratio [6]: 1.50

Nc1nc2c(-c3ccc(S(=O)(=O)NC4CCNCC4)c(S(N)(=O)=O)c3-c3nnn[nH]3)cccc2s1 [Example 32, 4-(2-amino-1,3-benzothiazol-4-yl)-N1-piperidin-4-yl-3-(1H-tetrazol-5-yl)benzene-1,2-disulfonamide]
IC50 (IMP-1): 0.34 nM
IC50 (NDM-1): 0.069 nM
IC50 (VIM-1; VIM-1 IC50, fluorescence assay): 0.296 nM
Escherichia coli expressing NDM-1 (CLB30016) MITC95 [1]: 6.25 µM
Klebsiella pneumoniae expressing VIM-1 (IHMA599644) MITC95 [2]: 3.125 µM
Serratia marcescens expressing IMP-1 (CL5741) MITC95 [3]: 1.563 µM
P. aeruginosa expressing IMP-1, efflux + (MB9798) MITC95 [4]: 0.7813 µM
P. aeruginosa expressing IMP-1, efflux − (MB9799) MITC95 [5]: 1.563 µM
Efflux ratio [6]: 0.50

COc1ccnc(CNS(=O)(=O)c2ccc(-c3cccc4sc(N)nc34)c(-c3nnn[nH]3)c2S(N)(=O)=O)n1 [Example 34, 4-(2-amino-1,3-benzothiazol-4-yl)-N1-[(4-methoxypyrimidin-2-yl)methyl]-3-(1H-tetrazol-5-yl)benzene-1,2-disulfonamide]
IC50 (IMP-1): 0.429 nM
IC50 (NDM-1): 0.0816 nM
IC50 (VIM-1; [7]): 0.329 nM
Escherichia coli expressing NDM-1 (CLB30016) MITC95 [1]: 25 µM
Klebsiella pneumoniae expressing VIM-1 (IHMA599644) MITC95 [2]: 50 µM
Serratia marcescens expressing IMP-1 (CL5741) MITC95 [3]: 6.25 µM
P. aeruginosa expressing IMP-1, efflux + (MB9798) MITC95 [4]: 25 µM
P. aeruginosa expressing IMP-1, efflux − (MB9799) MITC95 [5]: 6.25 µM
Efflux ratio [6]: 4.00

Nc1nc2c(-c3ccc(S(=O)(=O)NC4CCc5nccn5C4)c(S(N)(=O)=O)c3-c3nnn[nH]3)cccc2s1 (stereo not drawn) [Example 35, 4-(2-amino-1,3-benzothiazol-4-yl)-N1-(5,6,7,8-tetrahydroimidazo[1,2-a]pyridin-6-yl)-3-(1H-tetrazol-5-yl)benzene-1,2-disulfonamide]
IC50 (IMP-1): 0.349 nM
IC50 (NDM-1): 0.0508 nM
IC50 (VIM-1; [7]): 0.256 nM
Escherichia coli expressing NDM-1 (CLB30016) MITC95 [1]: 12.5 µM
Klebsiella pneumoniae expressing VIM-1 (IHMA599644) MITC95 [2]: 12.5 µM
Serratia marcescens expressing IMP-1 (CL5741) MITC95 [3]: 3.125 µM
P. aeruginosa expressing IMP-1, efflux + (MB9798) MITC95 [4]: 6.25 µM
P. aeruginosa expressing IMP-1, efflux − (MB9799) MITC95 [5]: 3.125 µM
Efflux ratio [6]: 2.00
